Like-named read-outs stand apart in the source and are kept apart here.
Assays:
[1] = target: T1, TDP2 (Homo sapiens (Human), UniProt O95551); test: gel-based TDP2 fluorescence assay in vitro; assay type: biochemical; settings: read-out: TDP2 IC50
[2] = target: T2, TDP1 (Homo sapiens (Human), UniProt Q9NUW8); test: TDP1 gel-based in vitro fluorescence assay; assay type: biochemical; settings: for FC (fold change): Table 8, ratio of IC50 TDP2 to TDP1
[3] = tested on: human colon cancer cell line HCT116; test: Synergistic effect with camptothecin (CPT) based on cell viability; settings: for synergy with camptothecin: list in description; for Synergy Score: with camptothecin (CPT), HCT116, 72 h, SynergyFinder 2.0
Description: The synergistic effects of the TDP1 inhibitors with CPT were tested in human colon cancer cell line HCT116 based on cell viability (Table 3, FIGS. 2-5). Cells were first seeded in a 384-well black-clear plate until 30% confluency and then incubated with a serial dilution of CPT at the range of 0-100 nM in the present or the absence of TDP1 inhibitors for 72 h at 37° C. Viable cell numbers were counted from the brightfield images taken by Biotek Cytation 5 (FIGS. 2-3). Fractional affect (Fa) and combination index (Ci) were analyzed with CompuSyn software. Synergistic scores of each TDP1 inhibitors were calculated and collected based on the data analysis from SynergyFinder (FIG. 4). […]

[4] = target: whole cell extract (WCE) human TDP1 (Homo sapiens (Human), UniProt Q9NUW8); test: gel based whole cell extract (WCE) human TDP1 fluorescence assay; assay type: biochemical; settings: read-out: WCE hTDP1 IC50
[5] = target: T2, TDP1; test: Lineweaver-Burk plot analysis of TDP1 inhibition; assay type: biochemical
Description: Samples were then analyzed with a 20% DNA sequencing gel and exposed to a PhosphorImager screen for further analysis by Typhoon FLA 9500 (GE Healthcare). The Linearweaver-Burk plots (FIG. 1) were generated based on the substrate concentrations and corresponding reaction velocities.

[6] = target: TOP1 (Homo sapiens (Human), UniProt P11387); test: Degradation of TOP1 in cells (western blotting); assay type: cell-based; settings: list in description
[7] = target: T1, TDP2; test: TDP2 degrading activity as stated in the description; settings: list in description
[8] = target: T2, TDP1; test: Degradation assay (western blotting) of TDP1 in HCT116 and HEK293 cells; assay type: cell-based; settings: list in description
Description: The degradation effect of the TDP1 inhibitors on TDP1 in human colon cancer cell line HCT116 and embryonic kidney cell line HEK293 were studied. Cells were first seeded in a 6-well plate until 60-80% confluency and then incubated with a serial dilution of TDP1 inhibitors at the range of 25-200 μM for 24-72 h at 37° C. […] Samples were then sonicated at 30% for 10 s and centrifuged for 15 min at 15000 rpm at 4 Celsius. Supernatant were collected and the concentration of total protein were measured by BCA Protein Assay Kit according to its protocols. Four micrograms of total protein for each sample were loaded and TDP1 level were conducted by western blotting.

[9] = Table 3, gel based TDP1 fluorescence assay, read-out: TDP1 IC50
[10] = Table 3, values in brackets (footnote vi), read-out: TDP1 IC50 (μM), separated data from previous experiments
[11] = Table 8, lead compounds with different linkers
[12] = Table 8, lead compounds with different linkers, read-out: TDP1 IC50

T2 sequence (Q9NUW8 whole entry): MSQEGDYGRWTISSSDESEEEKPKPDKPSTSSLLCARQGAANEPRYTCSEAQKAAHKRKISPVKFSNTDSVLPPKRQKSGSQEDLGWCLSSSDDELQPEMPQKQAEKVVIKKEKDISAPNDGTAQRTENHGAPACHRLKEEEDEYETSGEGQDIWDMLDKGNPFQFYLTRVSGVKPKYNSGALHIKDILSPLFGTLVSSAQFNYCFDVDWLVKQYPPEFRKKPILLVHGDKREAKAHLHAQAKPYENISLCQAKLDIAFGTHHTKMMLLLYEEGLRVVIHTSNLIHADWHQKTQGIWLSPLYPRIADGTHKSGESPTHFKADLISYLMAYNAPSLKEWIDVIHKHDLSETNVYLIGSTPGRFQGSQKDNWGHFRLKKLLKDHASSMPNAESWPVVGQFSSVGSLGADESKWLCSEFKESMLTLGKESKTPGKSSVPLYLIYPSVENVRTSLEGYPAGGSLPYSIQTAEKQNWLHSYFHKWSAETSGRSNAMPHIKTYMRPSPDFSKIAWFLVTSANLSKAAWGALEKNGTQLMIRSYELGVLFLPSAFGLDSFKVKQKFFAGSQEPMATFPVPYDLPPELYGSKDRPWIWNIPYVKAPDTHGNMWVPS
T1 sequence (O95551 whole entry, species assumed): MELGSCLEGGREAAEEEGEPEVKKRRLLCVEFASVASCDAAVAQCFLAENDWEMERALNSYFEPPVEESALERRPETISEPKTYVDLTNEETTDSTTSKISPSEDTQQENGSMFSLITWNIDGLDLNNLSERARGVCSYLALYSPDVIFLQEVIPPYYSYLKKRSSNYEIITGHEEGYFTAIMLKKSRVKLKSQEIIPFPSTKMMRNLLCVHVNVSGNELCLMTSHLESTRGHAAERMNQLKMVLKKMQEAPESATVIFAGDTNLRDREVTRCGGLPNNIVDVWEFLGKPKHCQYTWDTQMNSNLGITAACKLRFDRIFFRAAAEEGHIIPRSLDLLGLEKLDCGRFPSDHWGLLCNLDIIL
Chain of whole cell extract (WCE) human TDP1 (Q9NUW8 whole entry): as the sequence (Q9NUW8 whole entry) above

Structure (SMILES) | IC50 ([1]; Table 3) | IC50 ([2]; Table 1, imidazo[1,2-a]pyridin-3-amines, read-out: IC50) | IC50 [2, 9] | IC50 [2, 10] | TDP1 Selectivity ([2]; ratio of IC50 values of TDP1/TDP2) | synergy with camptothecin [3] | Synergy Score [3] | IC50 [4] | Ki ([5]; FIG. 1 legend, Lineweaver-Burk analysis, read-out: Inhibitory constant Ki) | Ki ([5]; Table 3, constant of inhibition (FIG. 1), read-out: Ki) | IC50 ([2]; Table 2, imidazo[1,2-a]pyrazin-3-amine core, read-out: IC50) | TOP1 degrading activity [6] | IC50 [1, 11] | TDP2 degrading activity [7] | IC50 [2, 12] | FC (fold change) [2] | TDP1 degrading activity [8]
O=C(O)c1ccc(Nc2c(-c3ccc(-c4ccccc4)cc3)nc3ccc(C(=O)O)cn23)cc1 [Compound 8n, 2-([1,1′-Biphenyl]-4-yl)-3-((4-carboxyphenyl)amino)imidazo[1,2-a]pyridine-6-carboxylic acid] | > 100 µM | 1.5 µM | 2.94 ± 0.47 µM | 1.5 µM | >34 | exhibit synergy with camptothecin | 11.3 | > 100 µM |  |  |  |  |  |  |  |  | 
O=C(O)c1ccc(Nc2c(-c3ccccc3)nc3cnccn23)cc1C(=O)O [Compound 10a, 4-((2-Phenylimidazo[1,2-a]pyrazin-3-yl)amino)phthalic acid] | > 100 µM |  | > 100 µM | 45.5 µM |  |  | 4 |  | 110 ± 30.9 µM | 110 ± 30.9 µM | 45.5 µM |  |  |  |  |  | 
N#Cc1ccc(-c2ccc(Cn3cc(-c4ccc(-c5nc6cc(-c7ccccc7)ccn6c5Nc5ccc(C(=O)O)cc5)cc4)nn3)cc2)nc1 [XZ718, 4-((2-(4-(1-(4-(5-Cyanopyridin-2-yl)benzyl)-1H-1,2,3-triazol-4-yl)phenyl)-7-phenylimidazo[1,2-a]pyridin-3-yl)amino)benzoic acid] |  |  |  |  |  | exhibit synergy with camptothecin |  |  |  |  |  | exhibit TOP1 degrading activity | 25.9 ± 0.4 µM | exhibit TDP2 degrading activity | 3.1 ± 0.2 µM | 8 | exhibit TDP1 degrading activity
N#Cc1ccc(-c2ccc(Cn3cc(COc4ccc(-c5nc6cc(-c7ccccc7)ccn6c5Nc5ccc(C(=O)O)cc5)cc4)nn3)cc2)nc1 [XZ720, 4-((2-(4-((1-(4-(5-Cyanopyridin-2-yl)benzyl)-1H-1,2,3-triazol-4-yl)methoxy)phenyl)-7-phenylimidazo[1,2-a]pyridin-3-yl)amino)benzoic acid] |  |  |  |  |  | exhibit synergy with camptothecin |  |  |  |  |  | exhibit TOP1 degrading activity | 32.9 ± 2.7 µM | exhibit TDP2 degrading activity | 23.5 ± 3.2 µM | 1 | exhibit TDP1 degrading activity
